The values below come from patent US9512139B2, “Conformationally constrained, fully synthetic macrocyclic compounds” (POLYPHOR AG, priority 2009, dated 2016).

Where two headings read alike, the source gives them in different places.

The conditions of this data set: amide bond.

For `CN1C[C@H](NC(=O)OCc2ccccc2)C(=O)N(C)CC(=O)N2C[C@@H](NC(=O)OCC[Si](C)(C)C)C[C@H]2COc2cccc(c2)C1=O`, for the setting “from CN(C[C@H](NC(=O)OCc1ccccc1)C(=O)N(C)CC(=O)O)C(=O)c1cccc(OC[C@@H]2C[C@H](NC(=O)OCC[Si](C)(C)C)CN2)c1, FDPP, DMF, 9.73 mM”, the ring closure, yield of all isomers amounted to 63%.
Take `CN1CC(=O)N2C[C@@H](NC(=O)OC(C)(C)C)C[C@H]2COc2ccc(F)cc2C(=O)N(C)[C@@H](C(=O)OCc2ccccc2)CCC1=O`: the ring closure, yield of all isomers (from CNCC(=O)N1C[C@@H](NC(=O)OC(C)(C)C)C[C@H]1COc1ccc(F)cc1C(=O)N(C)[C@H](CCC(=O)O)C(=O)OCc1ccccc1, T3P / i-Pr2NEt, CH2Cl2, 10.8 mM) stood at 92%.
As to `CN1CC(=O)N2C[C@H](NC(=O)OC(C)(C)C)C[C@H]2CSc2cccc(c2)C(=O)N(C)[C@H](C(=O)OCc2ccccc2)CCC1=O`, where the note is “from CNCC(=O)N1C[C@H](NC(=O)OC(C)(C)C)C[C@H]1CSc1cccc(C(=O)N(C)[C@@H](CCC(=O)O)C(=O)OCc2ccccc2)c1, T3P, i-Pr2NEt, CH2Cl2, 10.0 mM, 25.0 °C, 3.0 h”, the ring closure, yield of all isomers was 57%.
For the compound `CN1C(=O)c2cc(F)ccc2OC[C@@H]2C[C@H](NC(=O)OCC[Si](C)(C)C)CN2C(=O)CC[C@H]1C(=O)OCc1ccccc1`, the ring closure, yield of all isomers (from CN(C(=O)c1cc(F)ccc1OC[C@@H]1C[C@H](NC(=O)OCC[Si](C)(C)C)CN1)[C@@H](CCC(=O)O)C(=O)OCc1ccccc1, T3P, CH2Cl2, 10.0 mM, 25.0 °C, 20.0 h) amounted to 61%.
As to `O=C1NCCC[C@H](O)C(=O)N2C[C@@H](OCc3ccc(Br)cc3)C[C@H]2COc2cccc1c2`, the ring closure, yield of all isomers (from O=C(NCCC[C@H](O)C(=O)O)c1cccc(OC[C@@H]2C[C@H](OCc3ccc(Br)cc3)CN2)c1, T3P, i-Pr2NEt, CH2Cl2, 1.0 mM) is 47%.
Turning to `CN1CC(=O)N2CCN(C(=O)OC(C)(C)C)C[C@@H]2COc2ccc(F)cc2C(=O)N(C)[C@@H](C(=O)OCc2ccccc2)CCC1=O`, the ring closure, yield of all isomers (from CNCC(=O)N1CCN(C(=O)OC(C)(C)C)C[C@@H]1COc1ccc(F)cc1C(=O)N(C)[C@H](CCC(=O)O)C(=O)OCc1ccccc1, T3P / i-Pr2NEt, CH2Cl2, 10.4 mM) was 96%.
As for `CN1C[C@H](NC(=O)OCc2ccccc2)C(=O)N(C)CC(=O)N2C[C@@H](NC(=O)OC(C)(C)C)C[C@H]2COc2cccc(c2)C1=O`, the ring closure, yield of all isomers is, setting by setting: (from CNCC(=O)N1C[C@@H](NC(=O)OC(C)(C)C)C[C@H]1COc1cccc(C(=O)N(C)C[C@H](NC(=O)OCc2ccccc2)C(=O)O)c1, T3P / i-Pr2NEt, CH2Cl2, 0.96 mM) 73%; (from CNCC(=O)N1C[C@@H](NC(=O)OC(C)(C)C)C[C@H]1COc1cccc(C(=O)N(C)C[C@H](NC(=O)OCc2ccccc2)C(=O)O)c1, T3P / i-Pr2NEt, CH2Cl2, 1.0 mM) 39%.
Take `CC(C)(C)OC(=O)N[C@H]1C[C@H]2COc3cccc(c3)C(=O)NCCC[C@H](NC(=O)OCc3ccccc3)C(=O)N2C1`: the ring closure, yield of all isomers (from CC(C)(C)OC(=O)N[C@@H]1CN[C@H](COc2cccc(C(=O)NCCC[C@H](NC(=O)OCc3ccccc3)C(=O)O)c2)C1, T3P, i-Pr2NEt, CH2Cl2, 5.37 mM) was 71%.
Regarding `C[C@H]1C(=O)NCCC(=O)N2C[C@H](NC(=O)c3ccccc3)C[C@H]2COc2cccc(c2)C(=O)N1C`, the ring closure, yield of all isomers (from *CNC(=O)CCCOc1cc(OC)c(CN(C(=O)c2ccccc2)[C@@H]2C[C@@H](COc3cccc(C(=O)N(C)[C@@H](C)C(=O)O)c3)N(C(=O)CCN)C2)c(OC)c1, FDPP, i-Pr2NEt, DMF, 67.0 mM, 30.0 h, 7 steps) amounted to 16%.
For the setting “from CN(CCC[C@H](NC(=O)OCc1ccccc1)C(=O)O)C(=O)c1cccc(OC[C@@H]2C[C@H](OCc3ccc(Br)cc3)CN2)c1, T3P, CH2Cl2, 5.5 mM, 25.0 °C, 20.0 h”, `CN1CCC[C@H](NC(=O)OCc2ccccc2)C(=O)N2C[C@@H](OCc3ccc(Br)cc3)C[C@H]2COc2cccc(c2)C1=O` gave a ring closure, yield of all isomers of 57%.
As for `CN1C(=O)c2cc(F)ccc2OC[C@@H]2CN(C(=O)OC(C)(C)C)CCN2C(=O)CC[C@H]1C(=O)OCc1ccccc1`, the ring closure, yield of all isomers (from CN(C(=O)c1cc(F)ccc1OC[C@@H]1CN(C(=O)OC(C)(C)C)CCN1)[C@@H](CCC(=O)O)C(=O)OCc1ccccc1, T3P, CH2Cl2, 0.57 mM, 25.0 °C, 20.0 h) was found to be 77%.
For `CN1CCC[C@H](NC(=O)OCc2ccccc2)C(=O)N2C[C@@H](OCc3ccc(Br)cc3)C[C@H]2CSc2cccc(c2)C1=O`, the ring closure, yield of all isomers (from CN(CCC[C@H](NC(=O)OCc1ccccc1)C(=O)O)C(=O)c1cccc(SC[C@@H]2C[C@H](OCc3ccc(Br)cc3)CN2)c1, T3P, CH2Cl2, 1.96 mM, 25.0 °C, 3.0 h) came to 79%.
As for `CC(C)(C)OC(=O)N[C@H]1CCCCSc2cccc(c2)OC[C@@H]2C[C@H](OCc3ccc(Br)cc3)CN2C1=O`, the ring closure, yield of all isomers (from CC(C)(C)OC(=O)N[C@@H](CCCCSc1cccc(OC[C@@H]2C[C@H](OCc3ccc(Br)cc3)CN2)c1)C(=O)O, T3P, i-Pr2NEt, CH2Cl2, 2.0 mM, 25.0 °C, 4.0 h) turned out to be 99%.
`CN1CC(=O)N2C[C@H](NC(=O)OC(C)(C)C)C[C@H]2COc2ccc(cc2)C(=O)N(C)[C@H](C(=O)OCc2ccccc2)CCC1=O` came in with a ring closure, yield of all isomers (from CNCC(=O)N1C[C@H](NC(=O)OC(C)(C)C)C[C@H]1COc1ccc(C(=O)N(C)[C@@H](CCC(=O)O)C(=O)OCc2ccccc2)cc1, T3P, i-Pr2NEt, CH2Cl2, 1.05 mM, 3.0 h) of 54%.
`CN1CC(=O)N2C[C@@H](NC(=O)OC(C)(C)C)C[C@H]2COc2ccc(F)cc2C(=O)N(C)[C@H](C(=O)OCc2ccccc2)CCC1=O`: the ring closure, yield of all isomers (from CNCC(=O)N1C[C@@H](NC(=O)OC(C)(C)C)C[C@H]1COc1ccc(F)cc1C(=O)N(C)[C@@H](CCC(=O)O)C(=O)OCc1ccccc1, FDPP, DMF, 8.44 mM, 25.0 °C, 20.0 h) stood at 94%.
Under “from CNCC(=O)N1C[C@@H](NC(=O)OC(C)(C)C)C[C@H]1COc1cccc(C(=O)N(C)C[C@@H](NC(=O)OCc2ccccc2)C(=O)O)c1, FDPP, DMF, 1.0 mM, 60.0 °C, 20.0 h”, `CN1C[C@@H](NC(=O)OCc2ccccc2)C(=O)N(C)CC(=O)N2C[C@@H](NC(=O)OC(C)(C)C)C[C@H]2COc2cccc(c2)C1=O` showed a ring closure, yield of all isomers of 78%.
In turn, `O=C(N[C@H]1CCCNC(=O)c2cccc(c2)OC[C@@H]2C[C@H](Oc3ccccc3)CN2C1=O)OCc1ccccc1` yielded a ring closure, yield of all isomers (from O=C(N[C@@H](CCCNC(=O)c1cccc(OC[C@@H]2C[C@H](Oc3ccccc3)CN2)c1)C(=O)O)OCc1ccccc1, HATU, HOAt, i-Pr2NEt, DMF, 0.98 mM, 25.0 °C, 20.0 h) of 88%.
Consider `CN1CCC[C@H](NC(=O)OCc2ccccc2)C(=O)N2C[C@@H](Cc3ccccc3)C[C@H]2COc2cccc(c2)C1=O`, for which the ring closure, yield of all isomers (from CN(CCC[C@H](NC(=O)OCc1ccccc1)C(=O)O)C(=O)c1cccc(OC[C@@H]2C[C@H](Cc3ccccc3)CN2)c1, T3P, CH2Cl2, 4.5 mM, 25.0 °C, 0.5 h) turned out to be 37%.
`CN1CCC[C@H](NC(=O)OCc2ccccc2)C(=O)N2C[C@@H](NC(=O)OCC[Si](C)(C)C)C[C@H]2COc2cccc(c2)C1=O` showed a ring closure, yield of all isomers (from CN(CCC[C@H](NC(=O)OCc1ccccc1)C(=O)O)C(=O)c1cccc(OC[C@@H]2C[C@H](NC(=O)OCC[Si](C)(C)C)CN2)c1, T3P, CH2Cl2, 9.4 mM) of 54%.
For `CN1CC(=O)N2C[C@@H](NC(=O)OCC[Si](C)(C)C)C[C@H]2COc2cccc3c2C[C@@](NC(=O)OC(C)(C)C)(CC3)C(=O)N(C)C[C@H](NC(=O)OCc2ccccc2)C1=O`, the ring closure, yield of all isomers (from CN(CC(=O)O)C(=O)[C@H](CN(C)C(=O)[C@]1(NC(=O)OC(C)(C)C)CCc2cccc(OC[C@@H]3C[C@H](NC(=O)OCC[Si](C)(C)C)CN3)c2C1)NC(=O)OCc1ccccc1, T3P, i-Pr2NEt, CH2Cl2, 10.0 mM, 2.0 h) was found to be 44%.
The compound `CN1C(=O)c2cccc(c2)OC[C@@H]2C[C@H](NC(=O)OC(C)(C)C)CN2C(=O)COC[C@H]1C(=O)OCc1ccccc1` came in with a ring closure, yield of all isomers (from CN(C(=O)c1cccc(OC[C@@H]2C[C@H](NC(=O)OC(C)(C)C)CN2)c1)[C@@H](COCC(=O)O)C(=O)OCc1ccccc1, FDPP, DMF, 5.2 mM) of 80%.
In the case of `CN1CC[C@H](NC(=O)OCc2ccccc2)C(=O)N2C[C@@H](NC(=O)OCC[Si](C)(C)C)C[C@H]2COc2cccc(c2)C1=O`, the ring closure, yield of all isomers (from CN(CC[C@H](NC(=O)OCc1ccccc1)C(=O)O)C(=O)c1cccc(OC[C@@H]2C[C@H](NC(=O)OCC[Si](C)(C)C)CN2)c1, FDPP, DMF, 0.97 mM) worked out at 43%.
`CC(C)(C)OC(=O)N[C@@H]1C[C@H]2COc3ccc(Br)cc3C(=O)NC3(CCCC3)C(=O)N[C@@H](Cc3ccc4ccccc4c3)CC(=O)N2C1` yielded a ring closure, yield of all isomers (from CC(C)(C)OC(=O)N[C@H]1CN[C@H](COc2ccc(Br)cc2C(=O)NC2(C(=O)N[C@H](CC(=O)O)Cc3ccc4ccccc4c3)CCCC2)C1, T3P, i-Pr2NEt, CH2Cl2, 1.0 mM, 25.0 °C, 2.0 h) of 68%.
Consider `CN1CC(=O)N2C[C@H](NC(=O)OC(C)(C)C)C[C@H]2COc2ccsc2C(=O)N(C)[C@H](C(=O)OCc2ccccc2)CCC1=O`, for which the ring closure, yield of all isomers (from CNCC(=O)N1C[C@H](NC(=O)OC(C)(C)C)C[C@H]1COc1ccsc1C(=O)N(C)[C@@H](CCC(=O)O)C(=O)OCc1ccccc1, T3P, CH2Cl2, 10.0 mM, 25.0 °C, 1.0 h) stood at 69%.
`CN1C[C@H](NC(=O)OCc2ccccc2)C(=O)N(C)CC(=O)N2C[C@H](NC(=O)OCC[Si](C)(C)C)C[C@H]2COc2cccc(c2)C1=O` registered a ring closure, yield of all isomers (from CN(C[C@H](NC(=O)OCc1ccccc1)C(=O)N(C)CC(=O)O)C(=O)c1cccc(OC[C@@H]2C[C@@H](NC(=O)OCC[Si](C)(C)C)CN2)c1, FDPP, DMF, 10.16 mM) of 68%.
